Measurements published in PubChem BioAssay (NCI).
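48-hour exposure; five concentrations; linearly interpolated endpoints. TGI marks complete inhibition of growth.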

Columns and labels:
Experiment in all cases: DTP human tumour cell line panel, 48 h
NCI/ADR-RES ovarian = tested on: NCI/ADR-RES ovarian
DU-145 prostate = tested on: DU-145 prostate
K-562 leukemia = tested on: K-562 leukemia
SF-295 CNS = tested on: SF-295 CNS
OVCAR-3 ovarian = tested on: OVCAR-3 ovarian
HCT-15 colon = tested on: HCT-15 colon
HOP-62 NSCLC = tested on: HOP-62 NSCLC
M14 melanoma = tested on: M14 melanoma
RXF 393 renal = tested on: RXF 393 renal
MDA-MB-231 breast = tested on: MDA-MB-231 breast
OVCAR-5 ovarian = tested on: OVCAR-5 ovarian
SK-MEL-5 melanoma = tested on: SK-MEL-5 melanoma
A498 renal = tested on: A498 renal
COLO 205 colon = tested on: COLO 205 colon
T-47D breast = tested on: T-47D breast
MALME-3M melanoma = tested on: MALME-3M melanoma
NCI-H23 lung = tested on: NCI-H23 lung
MDA-MB-435 = tested on: MDA-MB-435
ACHN renal = tested on: ACHN renal
NCI-H460 lung = tested on: NCI-H460 lung
U251 CNS = tested on: U251 CNS
SR leukemia = tested on: SR leukemia
UO-31 renal = tested on: UO-31 renal
HOP-92 NSCLC = tested on: HOP-92 NSCLC
IGROV1 ovarian = tested on: IGROV1 ovarian
UACC-257 melanoma = tested on: UACC-257 melanoma
SN12C renal = tested on: SN12C renal
RPMI-8226 leukemia = tested on: RPMI-8226 leukemia
CAKI-1 renal = tested on: CAKI-1 renal
NCI-H522 lung = tested on: NCI-H522 lung
NCI-H226 lung = tested on: NCI-H226 lung
MOLT-4 leukemia = tested on: MOLT-4 leukemia
OVCAR-4 ovarian = tested on: OVCAR-4 ovarian
HCT-116 colon = tested on: HCT-116 colon
HL-60(TB) leukemia = tested on: HL-60(TB) leukemia
HS 578T breast = tested on: HS 578T breast
SK-MEL-2 melanoma = tested on: SK-MEL-2 melanoma
PC-3 prostate = tested on: PC-3 prostate
MDA-N = tested on: MDA-N
CCRF-CEM leukemia = tested on: CCRF-CEM leukemia
SNB-19 CNS = tested on: SNB-19 CNS
SNB-75 CNS = tested on: SNB-75 CNS
BT-549 breast = tested on: BT-549 breast
TK-10 renal = tested on: TK-10 renal
SK-MEL-28 melanoma = tested on: SK-MEL-28 melanoma
SF-539 CNS = tested on: SF-539 CNS
SK-OV-3 ovarian = tested on: SK-OV-3 ovarian
A549 NSCLC = tested on: A549 NSCLC
SF-268 CNS = tested on: SF-268 CNS
HT29 colon = tested on: HT29 colon
786-0 renal = tested on: 786-0 renal
MCF7 breast = tested on: MCF7 breast
LOX IMVI melanoma = tested on: LOX IMVI melanoma
UACC-62 melanoma = tested on: UACC-62 melanoma
EKVX NSCLC = tested on: EKVX NSCLC
OVCAR-8 ovarian = tested on: OVCAR-8 ovarian
SW-620 colon = tested on: SW-620 colon
KM12 colon = tested on: KM12 colon

## CCOc1ccccc1/C=C(/C#N)C(N)=O
NCI/ADR-RES ovarian
  TGI: > 100 µM
DU-145 prostate
  TGI: > 100 µM
K-562 leukemia
  TGI: > 100 µM
SF-295 CNS
  TGI: > 100 µM
OVCAR-3 ovarian
  TGI: > 100 µM
HCT-15 colon
  TGI: > 100 µM
HOP-62 NSCLC
  TGI: > 100 µM
M14 melanoma
  TGI: > 100 µM
RXF 393 renal
  TGI: > 100 µM
MDA-MB-231 breast
  TGI: > 100 µM
OVCAR-5 ovarian
  TGI: > 100 µM
SK-MEL-5 melanoma
  TGI: > 100 µM
A498 renal
  TGI: > 100 µM
COLO 205 colon
  TGI: > 100 µM
T-47D breast
  TGI: > 100 µM
MALME-3M melanoma
  TGI: > 100 µM
NCI-H23 lung
  TGI: > 100 µM
MDA-MB-435
  TGI: 41.9 µM
ACHN renal
  TGI: > 100 µM
NCI-H460 lung
  TGI: > 100 µM
U251 CNS
  TGI: > 100 µM
SR leukemia
  TGI: > 100 µM
UO-31 renal
  TGI: > 100 µM
HOP-92 NSCLC
  TGI: > 100 µM
IGROV1 ovarian
  TGI: > 100 µM
UACC-257 melanoma
  TGI: > 100 µM
SN12C renal
  TGI: > 100 µM
RPMI-8226 leukemia
  TGI: > 100 µM
CAKI-1 renal
  TGI: > 100 µM
NCI-H522 lung
  TGI: > 100 µM
NCI-H226 lung
  TGI: > 100 µM
MOLT-4 leukemia
  TGI: > 100 µM
OVCAR-4 ovarian
  TGI: > 100 µM
HCT-116 colon
  TGI: > 100 µM
HL-60(TB) leukemia
  TGI: > 100 µM
HS 578T breast
  TGI: > 100 µM
SK-MEL-2 melanoma
  TGI: > 100 µM
PC-3 prostate
  TGI: > 100 µM
MDA-N
  TGI: 45.7 µM
CCRF-CEM leukemia
  TGI: 73.7 µM
SNB-19 CNS
  TGI: > 100 µM
SNB-75 CNS
  TGI: > 100 µM
BT-549 breast
  TGI: > 100 µM
TK-10 renal
  TGI: > 100 µM
SK-MEL-28 melanoma
  TGI: > 100 µM
SF-539 CNS
  TGI: > 100 µM
SK-OV-3 ovarian
  TGI: > 100 µM
A549 NSCLC
  TGI: > 100 µM
SF-268 CNS
  TGI: > 100 µM
HT29 colon
  TGI: > 100 µM
786-0 renal
  TGI: > 100 µM
MCF7 breast
  TGI: > 100 µM
LOX IMVI melanoma
  TGI: > 100 µM
UACC-62 melanoma
  TGI: > 100 µM
EKVX NSCLC
  TGI: > 100 µM
OVCAR-8 ovarian
  TGI: > 100 µM
SW-620 colon
  TGI: > 100 µM
KM12 colon
  TGI: > 100 µM

## C#CC1(O)C(COP(=O)(O)OC(COCCCCCCCCCCCCCCCCCC)COP(=O)(O)OCC2OC(n3cc(C)c(=O)[nH]c3=O)CC2N=[N+]=[N-])OC(n2ccc(N)nc2=O)C1O (centres undefined)
NCI/ADR-RES ovarian
  TGI: 16.6 µM
DU-145 prostate
  TGI: > 100 µM
K-562 leukemia
  TGI: > 71.4 µM
SF-295 CNS
  TGI: 10.7 µM
OVCAR-3 ovarian
  TGI: 28.7 µM
HCT-15 colon
  TGI: > 47.8 µM
HOP-62 NSCLC
  TGI: > 74.2 µM
M14 melanoma
  TGI: 26.1 µM
RXF 393 renal
  TGI: 30.6 µM
MDA-MB-231 breast
  TGI: 32.2 µM
OVCAR-5 ovarian
  TGI: > 92.7 µM
SK-MEL-5 melanoma
  TGI: > 100 µM
A498 renal
  TGI: 17.1 µM
COLO 205 colon
  TGI: 5.23 µM
T-47D breast
  TGI: > 77 µM
MALME-3M melanoma
  TGI: 36.8 µM
NCI-H23 lung
  TGI: 23.1 µM
MDA-MB-435
  TGI: 8.38 µM
ACHN renal
  TGI: > 72.5 µM
NCI-H460 lung
  TGI: 17.6 µM
U251 CNS
  TGI: 22 µM
SR leukemia
  TGI: > 86.3 µM
UO-31 renal
  TGI: 2.69 µM
HOP-92 NSCLC
  TGI: 31.9 µM
IGROV1 ovarian
  TGI: 5.05 µM
UACC-257 melanoma
  TGI: > 77.3 µM
SN12C renal
  TGI: > 100 µM
RPMI-8226 leukemia
  TGI: 1.05 µM
CAKI-1 renal
  TGI: > 29 µM
NCI-H522 lung
  TGI: 1.33 µM
NCI-H226 lung
  TGI: > 91.2 µM
MOLT-4 leukemia
  TGI: 59.5 µM
OVCAR-4 ovarian
  TGI: 30.9 µM
HCT-116 colon
  TGI: > 100 µM
HL-60(TB) leukemia
  TGI: 16 µM
HS 578T breast
  TGI: 62.9 µM
SK-MEL-2 melanoma
  TGI: 2.44 µM
PC-3 prostate
  TGI: > 81.6 µM
MDA-N
  TGI: 20.5 µM
CCRF-CEM leukemia
  TGI: 18.9 µM
SNB-19 CNS
  TGI: 17.3 µM
SNB-75 CNS
  TGI: 22.3 µM
BT-549 breast
  TGI: 31 µM
TK-10 renal
  TGI: 10.2 µM
SK-MEL-28 melanoma
  TGI: 22.4 µM
SF-539 CNS
  TGI: 14.1 µM
SK-OV-3 ovarian
  TGI: 29.7 µM
A549 NSCLC
  TGI: 20.2 µM
SF-268 CNS
  TGI: 21.7 µM
HT29 colon
  TGI: > 50.9 µM
786-0 renal
  TGI: > 100 µM
MCF7 breast
  TGI: 8.67 µM
LOX IMVI melanoma
  TGI: 13 µM
UACC-62 melanoma
  TGI: 18.8 µM
EKVX NSCLC
  TGI: > 67.2 µM
OVCAR-8 ovarian
  TGI: > 42.2 µM
SW-620 colon
  TGI: 33.4 µM
KM12 colon
  TGI: 20.5 µM

## c1ccc(COC2NCCN2Cc2ccccc2)cc1 (centres undefined)
NCI/ADR-RES ovarian
  TGI: > 100 µM
DU-145 prostate
  TGI: > 100 µM
K-562 leukemia
  TGI: > 100 µM
SF-295 CNS
  TGI: > 100 µM
OVCAR-3 ovarian
  TGI: > 100 µM
HCT-15 colon
  TGI: > 100 µM
HOP-62 NSCLC
  TGI: > 100 µM
M14 melanoma
  TGI: > 100 µM
RXF 393 renal
  TGI: > 100 µM
MDA-MB-231 breast
  TGI: > 100 µM
OVCAR-5 ovarian
  TGI: > 100 µM
SK-MEL-5 melanoma
  TGI: > 100 µM
A498 renal
  TGI: > 100 µM
COLO 205 colon
  TGI: > 100 µM
T-47D breast
  TGI: > 100 µM
MALME-3M melanoma
  TGI: > 100 µM
NCI-H23 lung
  TGI: > 100 µM
MDA-MB-435
  TGI: > 100 µM
ACHN renal
  TGI: > 100 µM
NCI-H460 lung
  TGI: > 100 µM
U251 CNS
  TGI: > 100 µM
SR leukemia
  TGI: > 100 µM
UO-31 renal
  TGI: > 100 µM
HOP-92 NSCLC
  TGI: > 100 µM
IGROV1 ovarian
  TGI: > 100 µM
UACC-257 melanoma
  TGI: > 100 µM
SN12C renal
  TGI: > 100 µM
RPMI-8226 leukemia
  TGI: > 100 µM
CAKI-1 renal
  TGI: > 100 µM
NCI-H522 lung
  TGI: > 100 µM
NCI-H226 lung
  TGI: > 100 µM
MOLT-4 leukemia
  TGI: > 100 µM
OVCAR-4 ovarian
  TGI: > 100 µM
HCT-116 colon
  TGI: > 100 µM
HL-60(TB) leukemia
  TGI: > 100 µM
HS 578T breast
  TGI: > 100 µM
SK-MEL-2 melanoma
  TGI: > 100 µM
PC-3 prostate
  TGI: > 100 µM
MDA-N
  TGI: > 100 µM
CCRF-CEM leukemia
  TGI: > 100 µM
SNB-19 CNS
  TGI: > 100 µM
SNB-75 CNS
  TGI: > 100 µM
BT-549 breast
  TGI: > 100 µM
TK-10 renal
  TGI: > 100 µM
SK-MEL-28 melanoma
  TGI: > 100 µM
SF-539 CNS
  TGI: > 100 µM
SK-OV-3 ovarian
  TGI: > 100 µM
A549 NSCLC
  TGI: > 100 µM
SF-268 CNS
  TGI: > 100 µM
HT29 colon
  TGI: > 100 µM
786-0 renal
  TGI: > 100 µM
MCF7 breast
  TGI: > 100 µM
LOX IMVI melanoma
  TGI: > 100 µM
UACC-62 melanoma
  TGI: > 100 µM
EKVX NSCLC
  TGI: > 100 µM
OVCAR-8 ovarian
  TGI: > 100 µM
SW-620 colon
  TGI: > 100 µM
KM12 colon
  TGI: > 100 µM
